The values that follow come from patent publication US8790883B2, “Methods of identifying NF-κB inhibitors” (priority 2003, dated 2014).

Series [1] concerns the target T1, CC2 peptide (minimal oligomerization domain of NEMO) (Mus musculus, UniProt O88522).
T1 construct: made in house; host or cells: chemical solid-phase synthesis (Fmoc/tBu), no expression host
T1 sequence (O88522 253-287): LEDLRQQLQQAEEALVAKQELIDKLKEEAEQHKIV
The series can be described thus: Fluorescence anisotropy titration with CC2 peptide. It counts as binding, murine. How it is done:
(A) Direct titration of BODIPY-Ant-CC2 (1 μM) with CC2 by fluorescence anitropy. The concentration of CC2 was determined by amino acid analysis. Anisotropy values of BODIPY-Ant-CC2 in milliunits (mA) were plotted against an increasing concentration of the CC2 peptide. […] The two dashed lines represent a stoichiometric titration and intersect at an CC2 concentration of […]. Given the 1 μM concentration of the BODIPY-Ant-CC2, this gives a complex stoechiometrie of 0.8. (B) Direct titration of BODIPY-Ant-LZ (0.1 μM) with CC2 by fluorescence anitropy. […]
Anisotropy measurements were performed with a PTI QUANTAMASTER™ fluorometer equipped with polarizers for the excitation and emission beams. […] Steady-state fluorescence anisotropy was expressed as millianisotropy (mA) and was calculated according to the equations: (1) A=(IVV−GIVH)/(IVV+2GIVH); (2) G=IHV/IHH.; where A is anisotropy, G is a correction factor for wavelength-dependent distortion and I is the fluorescence intensity component (subscript referring to the vertical and horizontal positioning at the excitation and emission polarizers, respectively). […] The dissociation constant parameter was estimated by globally fitting the anisotropy data to binding isotherm equation as described in Agou et al. (J Biol Chem. 2004 Jul. 2; 279(27):27861-9) using KALEIDAGRAPH™ nonlinear regression software (Synergy Software, reading PA). […]
For orientation: Polarisation of emitted light reports the rotation of a fluorescent probe.

In series [2] the test system is LPS-induced NF-κB activation. Nature of the series: More stringent NF-κB inhibition assay, second procedure: peptide internalization, washing, 24 h growth, then LPS. It is filed as cell-based, murine. The conditions noted are these: 10 μM peptide, LPS 5 h after 24 h growth. From the text: Left panels show a helical wheel diagram of CC2 (A) and LZ (B) peptides. The view is from the top the molecule. The (a) through (g) positions, which are an essential feature of coiled coil sequence (Vinson, 2002, Mol. Cell. Biol.) represent sequential positions in each peptide sequence. The first (a) and fourth (d) positions that are generally occupied by hydrophobic amino acids constitute the hydrophobic core for parallel as well as antiparallel-coiled coils. Mutations that were introduced in (a) positions of the CC2 variant (BODIPY-Ant-CC2 (Mu); shown as residues 6-40 of SEQ ID NO:3, with glycine mutations corresponding to residues 6-40 of SEQ ID NO:5) or in (d) positions of the LZ variant (BODIPY-Ant-(Mu) are shown. In the right panels, 70Z3-C3 cells were incubated for 2 hours in the absence (control) or in the presence of 10 μM of cell permeable wild type (BODIPY-Ant-CC2 (WT)) or mutant (BODIPY-Ant-CC2 (Mu)) CC2 peptides (A) or wild type (BODIPY-Ant-LZ (WT)) or mutant (BODIPY-Ant-(Mu)) LZ peptides (B). The cells were then extensively washed to remove the excess peptide which had not been internalized and the cells were then diluted three times and allowed to grow for 24 hours before treatment for 5 hours with (+) or without LPS (−). NF-κB activity was measured using the β-galactosidase assay. Error bars represent the standard deviation of two independent experiments.
(A) Sequence alignment of the NEMO-derived LZ (residues 301-336 of SEQ ID NO: 12) and the GCN4 peptides (residues 23-55 of SEQ ID NO:8). Both coiled-coil motifs were aligned using clustalX. Identical and similar amino acid residues (shaded) are indicated by (!) or (*), respectively. (B) Overview and helical wheel diagram of the GCN4 coiled-coil (top view). The amino-acid sequence of GCN4 is shown with its corresponding [a-g] positions and residues that differ from the corresponding NEMO-derived LZ sequence are boxed according to their degree of conservation. Identical (open square) and similar residues (open triangle) are indicated. […] NF-κB activity was measured using the b-galactosidase assay. […]

In the next series the test system is 70Z/3-C3 cells. The series can be described thus: FACS analysis of cellular uptake of BODIPY-labelled peptides. The conditions noted are these: 0.2, 2 or 20 μM, 5 h, 37° C.
Series [3] relates to LPS-induced NF-κB activation. Nature of the series: NF-κB inhibition assay, first procedure: LPS-induced NF-κB dependent β-galactosidase reporter in 70Z/3-C3 cells. It counts as cell-based, murine.
Protocol: The resulting cell line, 70Z3-C3, was incubated for 2 hours in the absence or in the presence of 20 μM of antennapedia peptide (Ant), or BODIPY-labeled antennapedia peptide (BODIPY-Ant), or BODIPY-labeled antennapedia peptide coupled to CC2 (BODIPY-Ant-CC2) or LZ (BODIPY-Ant-LZ) peptides, After peptide internalization, cells were treated for 5 hours with LPS (3 μg/ml, (+) in left panel) or untreated (right panel and (−) in left panel) and the NF-κB activity was measured by β-galactosidase assay. Error bars represent the standard deviation of three separate experiments. (B) Concentration dependence of inhibition of LPS-induced NF-κB activation by BODIPY-Ant-CC2 peptide (left panel) or BODIPY-Ant-LZ peptide (right panel). Cells were treated as in (A) but with different concentration of peptide as indicated. The potential of each peptide to inhibit LPS-induced NF-κB activation was measured by determining the IC50 value that correspond to 50% inhibition of LPS-induced NF-κB activation as compared to the control (no peptide) (C). (D) Effect of the N-fusion sequence of antennapedia on the inhibition of NF-κB activation. Control (no peptide) or CC2, or LZ peptides, with (BODIPY-ANT-CC2, BODIPY-ANT-LZ) or without the antennapedia sequence at the N-terminus (CC2, LZ) were incubated for 2 hours with 70Z3-C3 cells followed with (+) or without (−) the LPS-treatment for 3 hours. NF-κB activity was then measured by β-galactosidase assay.
In a first procedure 2.2×10^5 70Z/3-C3 cells in 220 μl of RPMI 1640 supplemented with 10% fetal calf serum (FCS) and 50 μM β-mercaptoethanol were placed in a 96-well plate and incubated with various concentrations of peptide (0 to 20 μM) at 37° C. in 5% CO2 incubator. After two hours an equal portion (100 μl) of each cell sample transferred in two wells containing each 10^5 cells. One aliquot of cells was then treated for 5 hours with lipopolysaccharides from Salmonella abortus (Sigma) at 0.5 μg/ml final concentration, and the other one left-treated. After 5 hours, cells were centrifuged at 400×g for 5 min at room temperature and the cell pellets were washed three times with cold PBS (250 μl) by centrifugation. Cells were then lysed in the lysis buffer (25 mM tris-phosphate buffer at pH 7.8 containing 8 mM magnesium chloride, 1 mM dithioerythreitol, 1% Triton X-100, 15% glycerol and a protease inhibitor mixture (Roche)), and samples were centrifuged at 4° C. for 20 min to clarify the lysate. The supernatant was then kept on ice, and 30 μl was then assayed to measure the β-galactosidase activity with a plate luminometer (Berthold) using the GALACTON-STAR™ as chemiluminescent substrate (BD Biosciences Clontech, Bronstein et al., 1989). Background of reaction was measured by mixing for 1 hour 30 μl of lysis buffer with the reaction buffer (196 μl) and the GALACTON-STAR™ substrate (4 μl) provided by BD Biosciences. In a second procedure and a more stringent assay, 70Z/3-C3 cells (2.2×105 in 220 μl medium) were centrifuged at 400×g at room temperature after peptide internalization for 2 hours, and cell pellets were washed three times with 200 μl of PBS by centrifugation. Cells were then diluted three times with complete medium, and allowed to grow for at least 24 hours. The following steps are identical to the first procedure.
To analyze the inhibition potential of LPS-induced NF-κB activation by cell permeable BODIPY-Ant-CC2 and BODIPY-Ant-LZ peptides, the present inventors stably transfected the murine pre-B 70Z3 cell line with p12XlacZ-kB, which bears the β-galactosidase reporter gene under the control of the NF-κB transcription factor.
Series [4] is described as follows: Binding of NLM peptides, Hill coefficient calculation of cooperativity indices. From the text:
The present inventors compared NLM-DR to the corresponding NLM peptide by measuring the respective cooperativity indices, which evidence an advantage of NLM-DR mutated peptide over the wild-type.
The calculation of the “cooperativity indice” by means of Hill coefficient is based on the following formula Boundmax×L^n/(KD^n+L^n)
Wherein • Boundmax is the maximum concentration of the bound ligand, • L is the concentration of the free ligand, • n is the cooperativity indice and • KD, is the affinity constant of the ligand by the protein.

Series [5] in a line: Circular dichroism studies of helix stability. It counts as physicochemical. From the text:
From circular dichroism studies (CD), it appears that CC2 and LZ peptides adopt a helicoidal structure, depending on their concentration. […] RMN and Rayon X Diffraction studies have confirmed the structure of CC2.
Background: CD spectra are sensitive to the conformation of chiral molecules.

* marks the point of attachment. BODIPYFLEthylmaleimide = Cc1cc(C)n2c1C=C1C=CC(CCC(=O)NCCN3C(=O)CC(*)C3=O)=[N+]1[B-]2(F)F

In general, Kd refers to the equilibrium constant for the complex coming apart. A word on the IC50: it is the concentration at which inhibition is half-maximal. “Ac-C(BODIPYFLEthylmaleimide)RQIKIWFQNRRMKWKKSKGMQLEDLRQQLQQAEEALVAKQELIDKLKEEAEQHKIV-NH2 [BODIPY-Ant-CC2 (WT)]”: the Kd in series [1] was 15.2 µM. The “Binding stoichiometry of complex with CC2” value in series [1] (1 μM BODIPY-Ant-CC2 titrated with CC2) was found to be 0.8. Moreover, the “Reduction of NF-κB activation” value in series [2] is reported as 1.7 fold. For the same substance, the “Dependency of intracellular concentration on incubated concentration” value in the series on 70Z/3-C3 cells is “linear dependancy”. Moreover, the “LPS-induced NF-κB activation in presence of peptide” value in series [3] (20 μM peptide 2 h, LPS (3 μg/ml) 5 h, 70Z3-C3 cells) was “decreased significantly”. Besides, in series [3] (20 μM peptide, B lymphocytes stimulated by LPS), the “Reduction of NF-κB activity as compared with a control peptide” value amounted to 70%. Further, the IC50 in series [3] (70Z3-C3 cells, peptide 2 h, then LPS 5 h, β-galactosidase assay, read-out: IC50, 50% inhibition of LPS-induced NF-κB activation as compared to the control (no peptide)) was determined as 22 µM.
LKAQADIYKARFQAERHAREK [NLM-DR]: the “Affinity relative to wild-type NLM peptide, without accounting for cooperativity” value in series [4] is 75 times. Also, the “Helix stability by circular dichroism” value in series [5] is recorded as “helix more stable than the wild-type peptide”.
